Where two headings read alike, the source gives them in different places.
Columns and labels:
trypsin = experiment: Trypsin Inhibition Test; type: biochemical; conditions: substrate S-2222, 37° C., 20 minutes; read-out: Enzyme Inhibition IC50 Trypsin
Protocol: Added to 158 μL of a 20 mM tris-hydrochloric acid buffer (pH 7.5, containing 130 mM NaCl, 3.75 mM CaCl2, and 0.1% BSA) was 20 μL of a trypsin solution (manufactured by Sigma, a stock solution of […] was adjusted to 100 ng/mL with 0.001 N HCl containing 0.1% BSA). After that, 2 μL of a DMSO solution as a test compound adjusted to a concentration 100 times as high as the final concentration was added to the mixture, and the whole was reacted at 37° C. for 3 minutes. Then, 20 μL of a 2 mM synthetic substrate S-2222 (manufactured by Daiichi Pure Chemicals Co., Ltd.) was added to the mixture, and the whole was reacted at 37° C. for an additional 20 minutes, followed by addition of 100 μL of 20% acetic acid for stopping the reaction. After that, absorbance at 405 nm (hereinafter, abbreviated to OD 405 nm) was measured with a microplate reader.

β-tryptase = molecular target: T1, β-tryptase (Homo sapiens, UniProt Q15661); experiment: β-Tryptase Inhibition Test; type: biochemical
T1 construct: purchased Promega Corporation
Protocol: Sixty μL of a tris-hydrochloric acid buffer (pH 7.5, containing 200 ng/mL of heparin) was added to 20 μL of β-tryptase (manufactured by Promega Corporation) adjusted to 100 ng/mL with the same buffer. Then, 1 μL of a dimethyl sulfoxide (hereinafter, abbreviated to DMSO) solution as a test compound adjusted to a concentration 100 times as high as the final concentration was added to the mixture. After that, 20 μL of a 0.5 mM synthetic substrate Boc-Phe-Ser-Arg-MCA (manufactured by Peptide Institute, Inc) was added to the mixture, and the whole was reacted at 25° C. for 1 hour, followed by the addition of 100 μL of 20% acetic acid for stopping the reaction. Measured was fluorescence of free MCA generated by laser light with an excitation wavelength of 355 nm (fluorescent wavelength=460 nm, hereinafter abbreviated to F 460 nm).
Δ fluorescence count value (a fluorescence count value after an enzyme reaction—a fluorescence count value before the enzyme reaction) was used for a measure of an enzyme inhibition reaction of a drug, and the enzyme inhibition reaction was evaluated in terms of a suppression rate calculated by the following equation.
A=Δ F 460 nm of a mixture (control) of a substrate containing 1% DMSO and an enzyme
B=Δ F 460 nm of a mixture of a substrate containing a drug dissolved in DMSO and an enzyme
C=Δ F 460 nm of a mixture (blank) containing 1% DMSO and a substrate
Suppression rate (%)=(A−B)×100/(A−C)
The β-tryptase inhibitory activity was measured by the method described above.

FXa = molecular target: T2, FXa (Homo sapiens, UniProt P00742); experiment: FXa Inhibition Test; type: biochemical
T2 construct: FXa (manufactured by Enzyme Research Ltd.); purchased Enzyme Research Ltd
Protocol: 158 μL of a 20 mM tris-hydrochloric acid buffer (pH 7.5, containing 130 mM NaCl, 3.75 mM CaCl2, and 0.1% BSA) was placed on a 96 well microplate, and 20 μL of FXa (manufactured by Enzyme Research Ltd.) adjusted to 0.1 U/mL with the buffer was added to the buffer. Then, 2 μL of a DMSO solution as a test compound adjusted to a concentration 100 times as high as the final concentration was added to the mixture, and the whole was reacted at 37° C. for 3 minutes. After that, 20 μL of an S-2222 substrate solution adjusted to 2 mM with the buffer was added to the mixture, and the whole was reacted at 37° C. for 30 minutes, followed by addition of 100 μL of 20% acetic acid for stopping the reaction. After that, OD 405 nm was measured with a microplate reader.

[1] = Enzyme Inhibition IC50 Tryptase, selectivity test, Table 7
[2] = substrate S-2222, 37° C., 30 minutes, read-out: Enzyme Inhibition IC50 FXa
[3] = Tryptase Inhibiting Activity IC50, substrate Boc-Phe-Ser-Arg-MCA, 25° C., 1 hour
[4] = selectivity test, Table 7, read-out: Enzyme Inhibition IC50 Tryptase
[5] = substrate Boc-Phe-Ser-Arg-MCA, 25° C., 1 hour, read-out: Tryptase Inhibiting Activity IC50
[6] = read-out: FXa inhibiting activity in terms of IC50
[7] = read-out: β-tryptase inhibitory activity in terms of IC50

T2 sequence (P00742 235-488 limits assumed): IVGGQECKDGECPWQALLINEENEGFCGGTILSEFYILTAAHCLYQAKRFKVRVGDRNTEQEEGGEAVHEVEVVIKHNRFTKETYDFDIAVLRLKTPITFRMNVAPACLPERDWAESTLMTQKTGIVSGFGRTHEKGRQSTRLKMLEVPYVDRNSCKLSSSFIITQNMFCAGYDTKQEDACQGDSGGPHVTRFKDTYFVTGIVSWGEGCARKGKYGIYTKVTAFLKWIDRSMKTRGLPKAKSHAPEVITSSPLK
T2 sequence (P00742 41-179 partner limits assumed): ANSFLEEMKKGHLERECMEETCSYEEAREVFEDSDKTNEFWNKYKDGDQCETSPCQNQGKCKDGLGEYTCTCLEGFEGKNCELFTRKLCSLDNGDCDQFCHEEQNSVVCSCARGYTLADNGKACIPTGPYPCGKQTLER
T1 sequence (Q15661 31-275): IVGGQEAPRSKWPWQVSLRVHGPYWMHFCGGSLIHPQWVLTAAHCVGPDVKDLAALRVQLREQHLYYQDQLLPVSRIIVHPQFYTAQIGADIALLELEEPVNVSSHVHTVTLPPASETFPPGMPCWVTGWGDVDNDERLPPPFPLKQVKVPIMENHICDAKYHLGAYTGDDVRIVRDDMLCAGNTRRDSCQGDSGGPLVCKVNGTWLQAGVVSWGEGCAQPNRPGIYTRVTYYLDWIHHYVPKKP

## NCc1ccc(CCCNCCNS(=O)(=O)c2ccc3ccccc3c2)cc1 [Compound 1]
trypsin
  IC50: > 100 µM
β-tryptase
  IC50: 0.086 µM
β-tryptase; [1]
  IC50: 0.086 µM
FXa; [2]
  IC50: > 100 µM

## NCc1ccc(CCCNCCNS(=O)(=O)c2ccc3ccccc3c2Cl)cc1 [Compound 4]
trypsin
  IC50: > 100 µM
other
  melting point: 264.3 to 265.6 °C
FXa; [2]
  IC50: > 100 µM

## NCc1ccc(CCCNCCNS(=O)(=O)c2ccc3sccc3c2)cc1 [Compound 5]
β-tryptase; [3]
  IC50: 0.21 µM
other
  melting point: 264.2 to 265.4 °C

## NCc1ccc(CCCNCCNS(=O)(=O)c2ccc3c(c2)CCC3)cc1 [Compound 7]
β-tryptase; [3]
  IC50: 0.2 µM
other
  melting point: 199 to 199.7 °C

## NCc1ccc(CCCNCCNS(=O)(=O)c2ccc3c(c2)CNCC3)cc1 [Compound 9]
β-tryptase; [3]
  IC50: 0.19 µM
other
  melting point: 233.9 to 234.5 °C

## NCc1ccc(CCCNCCNC(=O)c2ccc3ccccc3c2)cc1 [Compound 11]
trypsin
  IC50: > 30 µM
β-tryptase; [4]
  IC50: 0.15 µM
β-tryptase; [5]
  IC50: 0.15 µM
other
  melting point: 69.7 to 72.2 °C
FXa; [2]
  IC50: > 30 µM

## NCc1ccc(CCCNCCNC(=O)c2ccc3ncccc3c2)cc1 [Compound 13]
β-tryptase; [5]
  IC50: 0.19 µM
other
  melting point: 269.5 to 271.2 °C

## CN(CCCc1ccc(CN)cc1)CCNS(=O)(=O)c1ccc2ccccc2c1 [Compound 17]
trypsin
  IC50: > 30 µM
β-tryptase
  IC50: 0.12 µM
β-tryptase; [1]
  IC50: 0.12 µM
other
  melting point: 91.6 to 92 °C
FXa; [2]
  IC50: > 30 µM

## CCN(CCCc1ccc(CN)cc1)CCNS(=O)(=O)c1ccc2ccccc2c1 [Compound 18]
β-tryptase; [5]
  IC50: 0.14 µM

## CN(CCCc1ccc(CN)cc1)CCNS(=O)(=O)c1ccc2ccccc2c1Cl [Compound 20]
β-tryptase; [5]
  IC50: 0.015 µM
other
  melting point: 221.5 to 222.7 °C

## NCc1ccc(CCCN(CCNS(=O)(=O)c2ccc3ccccc3c2)CCC(=O)O)cc1 [Compound 33]
β-tryptase; [5]
  IC50: 0.44 µM

## CN(CCCc1ccc(CN)cc1)CCNC(=O)c1ccc2cc(Br)ccc2c1 [Compound 41]
trypsin
  IC50: > 100 µM
β-tryptase; [4]
  IC50: 0.008 µM
FXa; [2]
  IC50: > 100 µM

## CN(CCCc1ccc(CN)cc1)CCNC(=O)c1cc2ccccc2o1 [Compound 45]
β-tryptase; [5]
  IC50: 0.02 µM

## CN(CCCc1ccc(CN)cc1)CCNC(=O)c1ccc2occc2c1 [Compound 46]
β-tryptase; [5]
  IC50: 0.064 µM

## CN(CCCc1ccc(CN)cc1)CCNC(=O)c1sc2ccccc2c1Cl [Compound 49]
β-tryptase; [5]
  IC50: 0.015 µM

## CN(CCCc1ccc(CN)cc1)CCNC(=O)c1c[nH]c2ccccc12 [Compound 51]
β-tryptase; [5]
  IC50: 0.1 µM

## CN(CCCc1ccc(CN)cc1)CCNC(=O)c1ccc2cc[nH]c2c1 [Compound 53]
β-tryptase; [5]
  IC50: 0.005 µM

## Cc1ccc2[nH]c(C(=O)NCCN(C)CCCc3ccc(CN)cc3)cc2c1 [Compound 55]
trypsin
  IC50: > 100 µM
β-tryptase; [4]
  IC50: 0.005 µM
β-tryptase; [5]
  IC50: 0.005 µM
FXa; [2]
  IC50: > 100 µM

## CN(CCCc1ccc(CN)cc1)CCNC(=O)c1cc2cc(Cl)ccc2[nH]1 [Compound 58]
trypsin
  IC50: > 100 µM
β-tryptase; [4]
  IC50: 0.006 µM
other
  melting point: 166.4 to 170 °C
FXa; [2]
  IC50: > 100 µM

## CN(CCCc1ccc(CN)cc1)CCNC(=O)c1cc2cc(Br)ccc2[nH]1 [Compound 61]
trypsin
  IC50: > 100 µM
β-tryptase; [4]
  IC50: 0.006 µM
β-tryptase; [5]
  IC50: 0.006 µM
FXa; [2]
  IC50: > 100 µM

## CN(CCCc1ccc(CN)cc1)CCNC(=O)c1cc2cc(F)ccc2[nH]1 [Compound 62]
β-tryptase; [5]
  IC50: 0.014 µM

## CN(CCCc1ccc(CN)cc1)CCNC(=O)c1cc2cc(C(F)(F)F)ccc2[nH]1 [Compound 63]
β-tryptase; [5]
  IC50: 0.032 µM

## CN(CCCc1ccc(CN)cc1)CCNC(=O)c1cc2cc(C(=O)O)ccc2[nH]1 [Compound 69]
β-tryptase; [5]
  IC50: 0.055 µM

## CC(=O)c1ccc2[nH]c(C(=O)NCCN(C)CCCc3ccc(CN)cc3)cc2c1 [Compound 70]
trypsin
  IC50: > 100 µM
β-tryptase; [4]
  IC50: 0.008 µM
FXa; [2]
  IC50: > 100 µM

## CN(CCCc1ccc(CN)cc1)CCNC(=O)c1cc2cc(OCc3ccccc3)ccc2[nH]1 [Compound 72]
trypsin
  IC50: > 100 µM
β-tryptase; [4]
  IC50: 0.015 µM
FXa; [2]
  IC50: > 100 µM

## CN(CCCc1ccc(CN)cc1)CCNC(=O)c1ccc2c(ccn2C)c1 [Compound 73]
β-tryptase; [5]
  IC50: 0.001 µM

## CN(CCCc1ccc(CN)cc1)CCNC(=O)c1nc2ccccc2s1 [Compound 77]
β-tryptase; [5]
  IC50: 0.073 µM

## CN(CCCc1ccc(CN)cc1)CCNC(=O)c1ccc2ncsc2c1 [Compound 78]
β-tryptase; [5]
  IC50: 0.02 µM

## CN(CCCc1ccc(CN)cc1)CCN(C)C(=O)c1cc2cc(Cl)ccc2[nH]1 [Compound 87]
β-tryptase; [5]
  IC50: 0.001 µM
other
  melting point: 190.2 to 191.4 °C

## CN(CCCc1ccc(CN)nc1)CCNC(=O)c1ccc2[nH]ccc2c1 [Compound 89]
β-tryptase; [5]
  IC50: 0.14 µM

## CN(CCCc1ccc(CN)s1)CCNC(=O)c1cc2ccccc2s1 [Compound 90]
β-tryptase; [5]
  IC50: 0.2 µM

## CN(CCCc1ccc(CN)cc1)CCNCc1cc2ccccc2s1 [Compound 91]
β-tryptase; [5]
  IC50: 0.31 µM

## NCc1ccc(CCCNCCNS(=O)(=O)c2ccc3ccccc3c2Cl)cc1 [compound 4]
FXa; [6]
  IC50: ≥ 100 µM

## CN(CCCc1ccc(CN)cc1)CCNC(=O)c1ccc2cc(Br)ccc2c1 [compound 41]
β-tryptase; [7]
  IC50: ≤ 0.01 µM
FXa; [6]
  IC50: ≥ 100 µM

## CN(CCCc1ccc(CN)cc1)CCNC(=O)c1ccc2cc[nH]c2c1 [compound 53]
β-tryptase; [7]
  IC50: ≤ 0.01 µM

## Cc1ccc2[nH]c(C(=O)NCCN(C)CCCc3ccc(CN)cc3)cc2c1 [compound 55]
β-tryptase; [7]
  IC50: ≤ 0.01 µM
FXa; [6]
  IC50: ≥ 100 µM

## CN(CCCc1ccc(CN)cc1)CCNC(=O)c1cc2cc(Cl)ccc2[nH]1 [compound 58]
β-tryptase; [7]
  IC50: ≤ 0.01 µM
FXa; [6]
  IC50: ≥ 100 µM

## CN(CCCc1ccc(CN)cc1)CCNC(=O)c1cc2cc(Br)ccc2[nH]1 [compound 61]
β-tryptase; [7]
  IC50: ≤ 0.01 µM
FXa; [6]
  IC50: ≥ 100 µM

## CC(=O)c1ccc2[nH]c(C(=O)NCCN(C)CCCc3ccc(CN)cc3)cc2c1 [compound 70]
β-tryptase; [7]
  IC50: ≤ 0.01 µM
FXa; [6]
  IC50: ≥ 100 µM

## CN(CCCc1ccc(CN)cc1)CCNC(=O)c1ccc2c(ccn2C)c1 [compound 73]
β-tryptase; [7]
  IC50: ≤ 0.01 µM

## CN(CCCc1ccc(CN)cc1)CCN(C)C(=O)c1cc2cc(Cl)ccc2[nH]1 [compound 87]
β-tryptase; [7]
  IC50: ≤ 0.01 µM
